Results reported in patent publication US20260191191A1, “METHOD FOR INACTIVATING ENVELOPED VIRUSES” (Merck Patent GmbH, priority 2022, published 2026).
“Also recorded” adds a separate entry of the source. Where two headings read alike, the source gives them in different places.

Legend:
[1] = system: Xenotropic murine leukemia virus (XMuLV); assay type: cell-based
Pseudorabies virus (PRV) = assay type: cell-based; conditions: CHO clarified harvest, 15° C., within 5 min
[2] = system: Bovine viral diarrheal virus (BVDV); assay type: cell-based
[3] = Critical micelle concentration (CMC) determination by static surface tension

With C11-C15 secondary alcohol ethoxylate the “SAE inactivation efficacy higher than Triton X-100 by” value [1] was ~ 1.0 log, the “XMuLV inactivation efficacy compared with Triton X-100” value [1] was “slightly higher efficacy than Triton™ X-100; also recorded: comparable inactivation with Triton™ X-100; also recorded: lower than that achieved with 1.0% Triton™ X-100, until a longer incubation time has elapsed; also recorded: comparable to that achieved with Triton™ X-100; also recorded: the same virus inactivation efficacy as Triton™ X-100” and the “XMuLV inactivation efficiency compared with Triton X-100” value [1] was “slightly higher than that achieved with Triton™ X-100 detergent”. For the same substance, the “time in which most XMuLV inactivation occurred” value [1] was ≤ 5 min, the “PRV inactivation LRV” value (Pseudorabies virus (PRV); 0.5% detergent) was ~ 6.5 and the “PRV inactivation LRV” value (Pseudorabies virus (PRV); 1.0% detergent) was ≥ 5.0. For the same substance, the “BVDV inactivation LRV” value [2] was ≥ 4.0, the “hemolysis compared with Triton X-100” value (Fresh human whole blood) was “comparable to Triton™ X-100” and the “critical micelle concentration (CMC)” value [3] was 49 mg/L.
